# Key:
# FLT3-D835Y = biological target: T1, FLT3-D835Y (Homo sapiens, UniProt P36888, D835Y); experiment: FLT3-D835Y recombinant enzyme kinase assay (AlphaScreen); type: biochemical; conditions: 8 pt, GMean
# T1 construct: purchased Invitrogen PV3967
# T1 sequence (P36888 27-993 D835Y): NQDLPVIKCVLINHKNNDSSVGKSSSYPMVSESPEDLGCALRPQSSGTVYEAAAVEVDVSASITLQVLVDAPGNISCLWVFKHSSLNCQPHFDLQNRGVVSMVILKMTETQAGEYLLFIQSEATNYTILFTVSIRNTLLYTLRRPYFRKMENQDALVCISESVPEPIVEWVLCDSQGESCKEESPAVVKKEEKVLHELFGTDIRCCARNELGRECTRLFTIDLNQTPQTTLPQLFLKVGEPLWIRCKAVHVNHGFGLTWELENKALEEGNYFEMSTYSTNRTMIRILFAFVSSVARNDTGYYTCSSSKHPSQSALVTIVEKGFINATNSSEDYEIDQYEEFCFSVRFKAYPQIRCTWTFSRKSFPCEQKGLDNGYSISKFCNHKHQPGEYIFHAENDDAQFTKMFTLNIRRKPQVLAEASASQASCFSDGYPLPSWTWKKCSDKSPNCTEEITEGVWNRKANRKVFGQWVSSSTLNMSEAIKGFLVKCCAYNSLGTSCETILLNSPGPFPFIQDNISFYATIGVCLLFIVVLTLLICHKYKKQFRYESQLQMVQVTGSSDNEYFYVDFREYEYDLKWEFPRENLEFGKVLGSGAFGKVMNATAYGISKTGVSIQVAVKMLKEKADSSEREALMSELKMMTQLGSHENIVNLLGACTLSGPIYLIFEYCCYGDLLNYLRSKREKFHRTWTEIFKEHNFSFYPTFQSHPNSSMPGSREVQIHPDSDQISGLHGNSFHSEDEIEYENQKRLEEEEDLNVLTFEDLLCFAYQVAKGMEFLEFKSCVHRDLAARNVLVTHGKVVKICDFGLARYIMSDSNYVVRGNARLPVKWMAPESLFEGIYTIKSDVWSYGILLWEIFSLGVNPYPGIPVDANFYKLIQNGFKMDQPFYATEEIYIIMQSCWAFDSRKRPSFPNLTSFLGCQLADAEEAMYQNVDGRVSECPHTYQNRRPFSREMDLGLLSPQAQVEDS
# Procedure: In order to determine the effect of compounds on FLT3 catalytic activity, kinase assays using recombinant enzymes and AlphaScreen® technology have been established. The catalytic activity of c-kit activity was also measured to determine selectivity of the compounds. When the kinases are catalytically active, they phosphorylate a biotinylated peptide substrate on tyrosine residues. Using AlphaScreen® technology, the ability of the compounds to affect the catalytic activity of the kinases can be measured quantitatively. The peptide substrate is immobilized by the AlphaScreen® Streptavidin Donor beads and, upon phosphorylation by a tyrosine kinase, can bind to AlphaScreen® Anti-Phosphotyrosine (PY20) Acceptor beads. Upon excitation of these beads with laser light at 680 nm, singlet oxygen is produced. This singlet oxygen is rapidly quenched, unless the AlphaScreen® Anti-Phosphotyrosine (PY20) Acceptor beads are in close proximity, in which case a proximity signal can be measured at 580 nm. In the presence of catalytic activity, there is a very strong proximity signal. Selective kinase inhibitors affect a decrease in this proximity signal through a decrease in tyrosine phosphorylation of the peptide substrate.
# The assay was performed as summarized below.
# Poly (Glu4-Tyr) Peptide, biotin conjugate [Biotin-GG(EEEEY)10EE] (SEQ ID NO: 4)
# Final concentration=30 nM
# Adenosine Triphosphate (ATP)
# Final concentration for IC50 determination=10 μM (FLT3-D835Y or FLT3-ITD) or 100 μM (c-KIT)
# AlphaScreen® Phosphotyrosine (PY20) Assay Kit
# Final concentration=10 μg/mL
# Dilute compounds in DMSO to 20× final concentration.
# Add 1 μL of compound to each well of 384 well reaction plate (Perkin Elmer #6005359).
# Mix enzyme and Poly (Glu4-Tyr) Peptide substrate at 1.33× final concentration in assay buffer.
# Mix ATP at 5× final concentration in assay buffer.
# Add 15 μL enzyme/substrate mixture to the reaction plate.
# Add 4 μL of ATP to the reaction plate.
# Mix Streptavidin Donor beads at 6× final concentration in Stop/Detection buffer.
# Add 5 μL Streptavidin Donor beads to the reaction plate. Centrifuge 1 minute, shake to mix, and incubate at room temperature for 20 minutes.
# Mix Anti-Phosphotyrosine (PY20) Acceptor beads at 6× final concentration in Stop/Detection buffer.
# Add 5 μL Anti-Phosphotyrosine (PY20) beads to the reaction plate.
# Centrifuge 1 minute, shake to mix, and incubate at room temperature for 60 minutes.
# Read plate on Wallac EnVision™ 2103 Multilabel Reader.
# [1] = test system: MOLM-14 D835Y (endogenous FLT3 ITD and transfected FLT3 D835Y); experiment: MOLM-14 D835Y cell proliferation assay (CellTiter-Glo); type: cell-based; conditions: Homo sapiens, MOLM-14, 72 h; 3 d growth, GMean
# Procedure, shortened: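 MOLM-14 derivatives carrying D835Y or F691L, selected under escalating AC220, were seeded at 1×10^4 cells/well and exposed to an 8-point 1:3 compound series (1 to 0.00046 μM, 0.2% DMSO final) for three days at 37° C., 5% CO2. CellTiter-Glo luminescence (ATP content) versus concentration gave IC50.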
SMILES,IC50 (FLT3-D835Y) [µM],IC50 [1] [µM]
"O=C(Cc1ccc(-c2cnc3[nH]c(-c4cnn(C(F)F)c4)cc3c2)c(F)c1)Nc1cncc(C(F)(F)F)c1 [Compound P-0197, 2-[4-[2-[1-(difluoromethyl)pyrazol-4-yl]-1H-pyrrolo[2,3-b]pyridin-5-yl]-3-fluoro-phenyl]-N-[5-(trifluoromethyl)-3-pyridyl]acetamide]",0.0001 to 10,0.0001 to 10
"COc1ncc(NC(=O)Cc2ccc(-c3cnc(Nc4cn(C)cn4)nc3)cc2F)cc1C(F)(F)F [Compound P-0101, 2-[2-fluoro-4-[2-[(1-methylimidazol-4-yl)amino]pyrimidin-5-yl]phenyl]-N-[6-methoxy-5-(trifluoromethyl)-3-pyridyl]acetamide]",0.0001 to 10,0.0001 to 10
"Cn1cc(Nc2ncc(-c3ccc(CC(=O)Nc4ccc(C(F)(F)F)nc4)c(F)c3)cn2)cn1 [Compound P-0110, 2-[2-fluoro-4-[2-[(1-methylpyrazol-4-yl)amino]pyrimidin-5-yl]phenyl]-N-[6-(trifluoromethyl)-3-pyridyl]acetamide]",0.0001 to 10,0.0001 to 10
"Cn1cc(Nc2ncc(-c3ccc(CC(=O)Nc4cccnc4)cc3)cn2)cn1 [Compound P-0131, 2-[4-[2-[(1-methylpyrazol-4-yl)amino]pyrimidin-5-yl]phenyl]-N-(3-pyridyl)acetamide]",0.0001 to 10,0.0001 to 10
Cn1cnc(Nc2ncc(-c3ccc(CC(=O)Nc4cncc(C(F)(F)F)c4)cc3)cn2)c1 [Compound P-0167],0.0001 to 10,0.0001 to 10
"COc1ccc(-c2cc3cc(-c4ccc(CC(=O)Nc5cncc(C(F)(F)F)c5)cc4F)cnc3[nH]2)cn1 [Compound P-0196, 2-[3-fluoro-4-[2-(6-methoxy-3-pyridyl)-1H-pyrrolo[2,3-b]pyridin-5-yl]phenyl]-N-[5-(trifluoromethyl)-3-pyridyl]acetamide]",0.0001 to 10,0.0001 to 10
"Cn1cc(Nc2ncc(-c3ccc(CC(=O)Nc4cc(C(F)(F)F)ncn4)cc3)cn2)cn1 [Compound P-0135, 2-[4-[2-[(1-methylpyrazol-4-yl)amino]pyrimidin-5-yl]phenyl]-N-[6-(trifluoromethyl)pyrimidin-4-yl]acetamide]",0.0001 to 10,0.0001 to 10
"Cn1cnc(Nc2ncc(-c3ccc(CC(=O)Nc4cc(C(C)(F)F)ccn4)cc3)cn2)c1 [Compound P-0169, N-[4-(1,1-difluoroethyl)-2-pyridyl]-2-[4-[2-[(1-methylimidazol-4-yl)amino]pyrimidin-5-yl]phenyl]acetamide]",0.0001 to 10,0.0001 to 10
"COc1ncc(NC(=O)Cc2ccc(-c3cnc4[nH]nc(C)c4c3)c(F)c2)cc1C(F)(F)F [Compound P-0174, 2-[3-fluoro-4-(3-methyl-1H-pyrazolo[3,4-b]pyridin-5-yl)phenyl]-N-[6-methoxy-5-(trifluoromethyl)-3-pyridyl]acetamide]",0.0001 to 10,0.0001 to 10
"Cn1cc(Nc2ncc(-c3ccc(CC(=O)Nc4ccc(C(F)(F)F)nc4)cc3)cn2)cn1 [Compound P-0095, 2-[4-[2-[(1-methylpyrazol-4-yl)amino]pyrimidin-5-yl]phenyl]-N-[6-(trifluoromethyl)-3-pyridyl]acetamide]",0.0001 to 10,0.0001 to 10
"N#Cc1cc(-c2cc3cc(-c4ccc(CC(=O)Nc5cc(C(F)(F)F)ccn5)cc4F)cnc3[nH]2)ccn1 [Compound P-0194, 2-[4-[2-(2-cyano-4-pyridyl)-1H-pyrrolo[2,3-b]pyridin-5-yl]-3-fluoro-phenyl]-N-[4-(trifluoromethyl)-2-pyridyl]acetamide]",0.0001 to 10,0.0001 to 10
"O=C(Cc1ccc(-c2cnc3[nH]c(-c4ccccc4)cc3c2)cn1)Nc1ccnc(C(F)(F)F)c1 [Compound P-0005, 2-[5-(2-phenyl-1H-pyrrolo[2,3-b]pyridin-5-yl)-2-pyridyl]-N-[2-(trifluoromethyl)-4-pyridyl]acetamide]",0.0001 to 10,0.0001 to 10
"N#Cc1cc(-c2cc3cc(-c4ccc(CC(=O)Nc5ccnc(C(F)(F)F)c5)nc4)cnc3[nH]2)ccn1 [Compound P-0182, 2-[5-[2-(2-cyano-4-pyridyl)-1H-pyrrolo[2,3-b]pyridin-5-yl]-2-pyridyl]-N-[2-(trifluoromethyl)-4-pyridyl]acetamide]",0.0001 to 10,0.0001 to 10
"Cn1cc(Nc2ncc(-c3ccc(CC(=O)Nc4ccnc(C5CC5)c4)c(F)c3)cn2)cn1 [Compound P-0098, N-(2-cyclopropyl-4-pyridyl)-2-[2-fluoro-4-[2-[(1-methylpyrazol-4-yl)amino]pyrimidin-5-yl]phenyl]acetamide]",0.0001 to 10,0.0001 to 10
"Cn1cc(Nc2ncc(-c3ccc(CC(=O)Nc4cccc(C(C)(C)C#N)c4)cc3)cn2)cn1 [Compound P-0158, N-[3-(1-cyano-1-methyl-ethyl)phenyl]-2-[4-[2-[(1-methylpyrazol-4-yl)amino]pyrimidin-5-yl]phenyl]acetamide]",0.0001 to 10,0.0001 to 10
"Cn1cc(Nc2ncc(-c3ccc(CC(=O)Nc4ccc(C(C)(C)C)nc4)cc3)cn2)cn1 [Compound P-0143, N-(6-tert-butyl-3-pyridyl)-2-[4-[2-[(1-methylpyrazol-4-yl)amino]pyrimidin-5-yl]phenyl]acetamide]",0.0001 to 10,0.0001 to 10
"Cn1cc(Nc2ncc(-c3ccc(CC(=O)Nc4cnc(Cl)c(C(F)(F)F)c4)cc3)cn2)cn1 [Compound P-0145, N-[6-chloro-5-(trifluoromethyl)-3-pyridyl]-2-[4-[2-[(1-methylpyrazol-4-yl)amino]pyrimidin-5-yl]phenyl]acetamide]",0.0001 to 10,0.0001 to 10
"Cn1cc(Nc2ncc(-c3ccc(CC(=O)Nc4ccnc(S(C)(=O)=O)c4)cc3)cn2)cn1 [Compound P-0154, 2-[4-[2-[(1-methylpyrazol-4-yl)amino]pyrimidin-5-yl]phenyl]-N-(2-methylsulfonyl-4-pyridyl)acetamide]",0.0001 to 10,0.0001 to 10
"Cn1cnc(Nc2ncc(-c3ccc(CC(=O)Nc4cnc(Cl)c(C(F)(F)F)c4)c(F)c3)cn2)c1 [Compound P-0100, N-[6-chloro-5-(trifluoromethyl)-3-pyridyl]-2-[2-fluoro-4-[2-[(1-methylimidazol-4-yl)amino]pyrimidin-5-yl]phenyl]acetamide]",0.0001 to 10,0.0001 to 10
"O=C(Cc1ccc(-c2cnc3[nH]c(-c4ccc(N5CCOCC5)nc4)cc3c2)c(F)c1)Nc1cc(C(F)(F)F)ccn1 [Compound P-0192, 2-[3-fluoro-4-[2-(6-morpholino-3-pyridyl)-1H-pyrrolo[2,3-b]pyridin-5-yl]phenyl]-N-[4-(trifluoromethyl)-2-pyridyl]acetamide]",0.0001 to 10,0.0001 to 10
